The test system of one series is MCF7. In words: Antiproliferative activity against human MCF7 cells assessed as inhibition of cell growth measured after 72 hrs by CCK8 assay. It counts as functional, cell-based. Conditions: MCF7, 72 h. (In general: Formazan colour is commonly taken as a measure of viable cells.)
Another series relates to A-375. In words: Antiproliferative activity against human A-375 cells assessed as inhibition of cell growth measured after 72 hrs by CCK8 assay. Format: functional, cell-based. Conditions: A-375, 72 h.
Series [1] can be described thus: Cytotoxicity against human C-28/I2 cells measured after 72 hrs by CCK8 assay. It counts as toxicity, cell-based.
Another series relates to SK-MEL-2. In words: Antiproliferative activity against human SK-MEL-2 cells assessed as inhibition of cell growth measured after 72 hrs by CCK8 assay. It counts as functional, cell-based. The note with it: SK-MEL-2, 72 h.
The subject of a further series is SK-HEP1. In words: Antiproliferative activity against human SK-HEP1 cells assessed as inhibition of cell growth measured after 72 hrs by CCK8 assay. The note with it: SK-HEP1, 72 h. It counts as functional, cell-based.

Structures are written as SMILES.

This is an account of results in ChEMBL document CHEMBL5113479, “Pyrido[2,3-d]pyrimidine-2,4(1H,3H)-dione derivatives as RAF-MEK-ERK pathway signaling pathway blockers: Synthesis, cytotoxic activity, mechanistic investigation and structure-activity relationships” (Eur J Med Chem, 2022).

As to `Cn1c(=O)c2c(NCC(=O)Nc3ccc(OC(F)(F)F)cc3)cc(N3CCCC3)nc2n(C)c1=O`, the IC50 with MCF7 was 36.2 µM; in the series on A-375 it was above 50 µM. The compound also showed a CC50 at 72 h in series [1] above 100 µM.

For `Cn1c(=O)c2c(Nc3ccc(OC(F)(F)F)cc3)cc(=O)n(C)c2n(C)c1=O`, the IC50 with MCF7 came out at 49.8 µM; with A-375, 40.7 µM. The compound also yielded a CC50 at 72 h in series [1] above 100 µM.

With `CN(C)c1cc(NCC(=O)Nc2ccc(F)cc2)c2c(=O)n(C)c(=O)n(C)c2n1`, the IC50 in the series with MCF7 was found to be 47.5 µM; in the series on A-375 it was 45.7 µM. The same compound showed a CC50 at 72 h in series [1] above 100 µM.

Take `CN1CCN(c2cc(NCC(=O)Nc3cccc(C(F)(F)F)c3)c3c(=O)n(C)c(=O)n(C)c3n2)CC1`: the IC50 was 45 µM with A-375 and above 50 µM with SK-MEL-2. This compound displayed a CC50 at 72 h in series [1] above 100 µM.

Turning to `Cn1c(=O)c2c(Nc3ccc(F)c(Cl)c3)cc(=O)n(C)c2n(C)c1=O`, the IC50 with MCF7 was above 50 µM; with A-375, 49.6 µM. In series [1], this compound showed a CC50 at 72 h above 100 µM.

In the case of `CN1CCN(c2cc(NCC(=O)Nc3ccc(OC(F)(F)F)cc3)c3c(=O)n(C)c(=O)n(C)c3n2)CC1`, the IC50 was found to be 39.3 µM in the series on MCF7, 30.5 µM with A-375, 36.6 µM with SK-MEL-2 and 34 µM in the series with SK-HEP1. The compound further came in with a CC50 at 72 h in series [1] above 100 µM.

With `Cn1c(=O)c2c(NCC(=O)Nc3ccc(C(F)(F)F)cc3)cc(N3CCOCC3)nc2n(C)c1=O`, the figures for the IC50 in the series with MCF7 and with A-375 were 46.6 µM and above 50 µM, respectively. In series [1], this compound came in with a CC50 at 72 h above 100 µM.

For `COC(=O)c1ccccc1Nc1cc(=O)n(C)c2c1c(=O)n(C)c(=O)n2C`, the figures for the IC50 with MCF7 and in the series with A-375 were 33.4 µM and above 50 µM, respectively. The compound further returned a CC50 at 72 h in series [1] above 100 µM.

`CN(C)c1cc(NCC(=O)Nc2ccc(OC(F)(F)F)cc2)c2c(=O)n(C)c(=O)n(C)c2n1`: the IC50 with A-375 is 39.2 µM; in the series on SK-MEL-2, above 50 µM. The CC50 at 72 h in series [1] is above 25 µM.

Take `Cc1cccc(NC(=O)CNc2cc(N3CCN(C)CC3)nc3c2c(=O)n(C)c(=O)n3C)c1`: the 50% inhibitory concentration (IC50) in the series with A-375 was 40 µM; with SK-MEL-2, 42.3 µM; in the series on SK-HEP1 it was 17.3 µM. Moreover, in series [1], the CC50 at 72 h was above 25 µM.

For `CCn1c(=O)n(C)c(=O)c2c(Nc3ccc(F)c(Cl)c3)cc(=O)n(C)c21`, the IC50 in the series on MCF7 and in the series with A-375 was above 50 µM each time. For the same compound, in series [1], the CC50 at 72 h is above 100 µM.

Consider `CN(C)c1cc(NCC(=O)Nc2ccc(Cl)cc2)c2c(=O)n(C)c(=O)n(C)c2n1`, for which the IC50 with MCF7 is 49.2 µM; in the series on A-375, above 50 µM. Also, the CC50 at 72 h in series [1] was above 100 µM.

As for `CN(C)c1cc(NCC(=O)Nc2cccc(C(F)(F)F)c2)c2c(=O)n(C)c(=O)n(C)c2n1`, the IC50 is 31.9 µM with A-375 and above 50 µM in the series on SK-MEL-2. In series [1], this compound returned a CC50 at 72 h above 100 µM.

Regarding `Cc1ccccc1NC(=O)CNc1cc(N2CCCC2)nc2c1c(=O)n(C)c(=O)n2C`, the IC50 is 15.8 µM with MCF7, 7.6 µM in the series with A-375, 6.59 µM with SK-MEL-2 and 10.7 µM in the series on SK-HEP1. Moreover, the CC50 at 72 h in series [1] is above 100 µM.

Regarding `O=c1[nH]cc(F)c(=O)[nH]1` [FLUOROURACIL], the IC50 amounted to 7.42 µM in the series with MCF7, 5.98 µM in the series with A-375, 6.52 µM with SK-MEL-2 and 4.95 µM in the series on SK-HEP1.

With `Cn1c(=O)c2c(NCC(=O)Nc3ccc(F)cc3)cc(N3CCCC3)nc2n(C)c1=O`, the figures for the concentration for half-maximal inhibition (IC50) in the series with MCF7 and in the series with A-375 were 39.6 µM and above 50 µM, respectively. The same compound had a cytotoxic concentration (CC50) at 72 h in series [1] above 100 µM.

Consider `CC(C)Nc1c(Cc2ccccc2)c(=O)n(C)c2c1c(=O)n(C)c(=O)n2C`, for which the IC50 is 9.98 µM in the series with MCF7 and 24.5 µM in the series on A-375. In series [1], this compound gave a half-maximal cytotoxic concentration (CC50) at 72 h above 100 µM.

In the case of `CCn1c(=O)n(C)c(=O)c2c(Nc3ccccn3)cc(=O)n(C)c21`, the IC50 in the series on MCF7 is 35 µM; with A-375, 39.5 µM. The same compound displayed a half-maximal cytotoxic concentration (CC50) at 72 h in series [1] above 100 µM.

Take `Cn1c(=O)c2c(NCC(=O)Nc3ccc(Cl)cc3)cc(N3CCOCC3)nc2n(C)c1=O`: the results for the IC50 with A-375 and in the series on SK-MEL-2 were 43.2 µM and 46.5 µM, respectively. Also, the CC50 at 72 h in series [1] is above 100 µM.

On to `Cc1ccccc1NC(=O)CNc1cc(N(C)C)nc2c1c(=O)n(C)c(=O)n2C`, for which the IC50 in the series with MCF7 is 49.9 µM; in the series with A-375, above 50 µM. In series [1], this compound showed a CC50 at 72 h above 100 µM.

Consider `Cn1c(=O)c2c(NCC(=O)Nc3ccc(F)cc3)cc(N3CCOCC3)nc2n(C)c1=O`, for which the IC50 in the series with MCF7 is 45.4 µM; in the series with A-375, above 50 µM. This compound had a CC50 at 72 h in series [1] above 100 µM.

As for `Cn1c(=O)c2c(Nc3ccccn3)cc(=O)n(C)c2n(C)c1=O`, the IC50 in the series on MCF7 turned out to be 10.2 µM; in the series on A-375, 25 µM. The compound also registered a CC50 at 72 h in series [1] above 100 µM.

On to `CN1CCN(c2cc(NCC(=O)Nc3ccc(C(F)(F)F)cc3)c3c(=O)n(C)c(=O)n(C)c3n2)CC1`, for which the IC50 is above 50 µM in the series on MCF7, above 50 µM in the series on A-375 and 46.4 µM in the series with SK-MEL-2. The same compound came in with a CC50 at 72 h in series [1] above 50 µM.

As to `CN(C)c1cc(NCC(=O)Nc2cccc(Cl)c2)c2c(=O)n(C)c(=O)n(C)c2n1`, the results for the IC50 in the series with A-375 and in the series on SK-MEL-2 were above 50 µM and 41.2 µM, respectively. In series [1], this compound gave a CC50 at 72 h above 100 µM.

`CN1CCN(c2cc(NCC(=O)Nc3ccc(F)cc3)c3c(=O)n(C)c(=O)n(C)c3n2)CC1`: the half-maximal inhibitory concentration (IC50) with MCF7 turned out to be 32.9 µM; with A-375, 44.7 µM; in the series on SK-MEL-2, 19.9 µM; in the series on SK-HEP1 it was 34.2 µM. In series [1], this compound displayed a CC50 at 72 h above 50 µM.

Turning to `Cn1c(=O)c2c(NCC(=O)Nc3cccc(C(F)(F)F)c3)cc(N3CCOCC3)nc2n(C)c1=O`, the IC50 was found to be 12 µM in the series on MCF7, 7.36 µM with A-375, 4.03 µM in the series with SK-MEL-2 and 11 µM with SK-HEP1. The same compound returned a half-maximal cytotoxic concentration (CC50) at 72 h in series [1] above 100 µM.

Regarding `CN1CCN(c2cc(NCC(=O)Nc3ccc(Cl)cc3)c3c(=O)n(C)c(=O)n(C)c3n2)CC1`, the IC50 was above 50 µM in the series with MCF7, above 50 µM with A-375, 22.4 µM in the series on SK-MEL-2 and above 50 µM in the series on SK-HEP1. For the same compound, in series [1], the 50% cytotoxic concentration (CC50) at 72 h is above 25 µM.

`CN(C)CCNc1c(Cc2ccccc2)c(=O)n(C)c2c1c(=O)n(C)c(=O)n2C`: the IC50 in the series on MCF7 and in the series on A-375 was above 50 µM throughout. Besides, the CC50 at 72 h in series [1] is above 100 µM.

Take `Cn1c(=O)c2c(NC3CC3)c(Cc3ccccc3)c(=O)n(C)c2n(C)c1=O`: the IC50 with MCF7 came to 35.9 µM; with A-375, 45.9 µM. Besides, the CC50 at 72 h in series [1] was above 100 µM.

In the case of `Cc1ccccc1NC(=O)CNc1cc(=O)n(C)c2c1c(=O)n(C)c(=O)n2C`, the IC50 in the series with MCF7 amounted to 17.2 µM; in the series on A-375, 13 µM. In series [1], this compound had a CC50 at 72 h above 100 µM.

Take `Cn1c(=O)c2c(NCC(=O)Nc3ccc(Cl)cc3)cc(N3CCCC3)nc2n(C)c1=O`: the IC50 turned out to be 41.2 µM in the series on MCF7 and 48.2 µM in the series with A-375. Moreover, the CC50 at 72 h in series [1] was above 100 µM.

As for `Cn1c(=O)c2c(NCC(=O)Nc3ccccc3)cc(N3CCCC3)nc2n(C)c1=O`, the IC50 in the series with MCF7 is 42.3 µM; with A-375, above 50 µM. In series [1], this compound yielded a CC50 at 72 h above 100 µM.

For the compound `Cn1c(=O)c2c(NCCCN3CCOCC3)c(Cc3ccccc3)c(=O)n(C)c2n(C)c1=O`, the IC50 in the series with MCF7 and with A-375 was above 50 µM each time. The CC50 at 72 h in series [1] was above 100 µM.

In the case of `CN(C)c1cc(NCC(=O)Nc2ccc(C(F)(F)F)cc2)c2c(=O)n(C)c(=O)n(C)c2n1`, the values for the IC50 in the series with A-375 and with SK-MEL-2 were 43.2 µM and above 50 µM, respectively. For the same compound, in series [1], the CC50 at 72 h is above 50 µM.

For the compound `Cn1c(=O)c2c(NCC(=O)Nc3cccc(Cl)c3)cc(N3CCCC3)nc2n(C)c1=O`, the IC50 is 48.6 µM in the series with A-375 and above 50 µM in the series on SK-MEL-2. This compound registered a CC50 at 72 h in series [1] above 100 µM.

For the compound `CCn1c(=O)n(C)c(=O)c2c(Nc3ccccc3C(=O)OC)cc(=O)n(C)c21`, the IC50 in the series with MCF7 and with A-375 was above 50 µM each time. The same compound showed a CC50 at 72 h in series [1] above 100 µM.

In general, IC50 refers to the point on the concentration scale where inhibition reaches its midpoint. As a reminder, the CC50 is the concentration that lowers cell viability or growth by half. Low readings indicate greater toxicity to the cells, high ones lower toxicity to the cells.
